Test results from PubChem BioAssay (NCI).
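Method: 48-hour compound exposure of cells in 96-well plates, five concentrations, linear interpolation of endpoints. Abbreviation: GI50, concentration required for 50% inhibition of growth. TGI: total growth inhibition.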

Tests used:
Assay in all cases: NCI-60 cell line screen, 48 h
786-0 renal = test system: 786-0 renal
A498 renal = test system: A498 renal
A549 NSCLC = test system: A549 NSCLC
ACHN renal = test system: ACHN renal
BT-549 breast = test system: BT-549 breast
CAKI-1 renal = test system: CAKI-1 renal
CCRF-CEM leukemia = test system: CCRF-CEM leukemia
COLO 205 colon = test system: COLO 205 colon
DU-145 prostate = test system: DU-145 prostate
EKVX NSCLC = test system: EKVX NSCLC
HCC-2998 colon = test system: HCC-2998 colon
HCT-116 colon = test system: HCT-116 colon
HCT-15 colon = test system: HCT-15 colon
HL-60(TB) leukemia = test system: HL-60(TB) leukemia
HOP-62 NSCLC = test system: HOP-62 NSCLC
HOP-92 NSCLC = test system: HOP-92 NSCLC
HS 578T breast = test system: HS 578T breast
HT29 colon = test system: HT29 colon
IGROV1 ovarian = test system: IGROV1 ovarian
K-562 leukemia = test system: K-562 leukemia
KM12 colon = test system: KM12 colon
LOX IMVI melanoma = test system: LOX IMVI melanoma
M14 melanoma = test system: M14 melanoma
MALME-3M melanoma = test system: MALME-3M melanoma
MCF7 breast = test system: MCF7 breast
MDA-MB-231 breast = test system: MDA-MB-231 breast
MDA-MB-435 = test system: MDA-MB-435
MDA-MB-468 breast = test system: MDA-MB-468 breast
MOLT-4 leukemia = test system: MOLT-4 leukemia
NCI-H226 lung = test system: NCI-H226 lung
NCI-H23 lung = test system: NCI-H23 lung
NCI-H460 lung = test system: NCI-H460 lung
NCI-H522 lung = test system: NCI-H522 lung
NCI/ADR-RES ovarian = test system: NCI/ADR-RES ovarian
OVCAR-3 ovarian = test system: OVCAR-3 ovarian
OVCAR-4 ovarian = test system: OVCAR-4 ovarian
OVCAR-5 ovarian = test system: OVCAR-5 ovarian
OVCAR-8 ovarian = test system: OVCAR-8 ovarian
PC-3 prostate = test system: PC-3 prostate
RPMI-8226 leukemia = test system: RPMI-8226 leukemia
RXF 393 renal = test system: RXF 393 renal
SF-268 CNS = test system: SF-268 CNS
SF-295 CNS = test system: SF-295 CNS
SF-539 CNS = test system: SF-539 CNS
SK-MEL-2 melanoma = test system: SK-MEL-2 melanoma
SK-MEL-28 melanoma = test system: SK-MEL-28 melanoma
SK-MEL-5 melanoma = test system: SK-MEL-5 melanoma
SK-OV-3 ovarian = test system: SK-OV-3 ovarian
SN12C renal = test system: SN12C renal
SNB-19 CNS = test system: SNB-19 CNS
SNB-75 CNS = test system: SNB-75 CNS
SW-620 colon = test system: SW-620 colon
T-47D breast = test system: T-47D breast
TK-10 renal = test system: TK-10 renal
U251 CNS = test system: U251 CNS
UACC-257 melanoma = test system: UACC-257 melanoma
UACC-62 melanoma = test system: UACC-62 melanoma
UO-31 renal = test system: UO-31 renal

Structure (SMILES): Cc1ccc2nc(-c3ccc(-c4nnc(SCC(=O)Nc5ccc(Cl)cc5)o4)cc3)[nH]c2c1
- GI50 (786-0 renal): 3.05 µM
- TGI (786-0 renal): 10.7 µM
- GI50 (A498 renal): 16.3 µM
- TGI (A498 renal): 31.4 µM
- GI50 (A549 NSCLC): 3.09 µM
- TGI (A549 NSCLC): 12.5 µM
- GI50 (ACHN renal): 4 µM
- TGI (ACHN renal): 15.3 µM
- GI50 (BT-549 breast): 16.4 µM
- TGI (BT-549 breast): 32.4 µM
- GI50 (CAKI-1 renal): 3.59 µM
- TGI (CAKI-1 renal): 15.9 µM
- GI50 (CCRF-CEM leukemia): 5.91 µM
- TGI (CCRF-CEM leukemia): > 100 µM
- GI50 (COLO 205 colon): 9.86 µM
- TGI (COLO 205 colon): 30.8 µM
- GI50 (DU-145 prostate): 7.92 µM
- TGI (DU-145 prostate): 47.7 µM
- GI50 (EKVX NSCLC): 6.56 µM
- TGI (EKVX NSCLC): 21.5 µM
- GI50 (HCC-2998 colon): 10.6 µM
- TGI (HCC-2998 colon): 23.7 µM
- GI50 (HCT-116 colon): 3.01 µM
- TGI (HCT-116 colon): 15.2 µM
- GI50 (HCT-15 colon): 7.87 µM
- TGI (HCT-15 colon): 21.2 µM
- GI50 (HL-60(TB) leukemia): 18.5 µM
- TGI (HL-60(TB) leukemia): > 100 µM
- GI50 (HOP-62 NSCLC): 5.43 µM
- TGI (HOP-62 NSCLC): 23.5 µM
- GI50 (HOP-92 NSCLC): 5.99 µM
- TGI (HOP-92 NSCLC): 24.4 µM
- GI50 (HS 578T breast): 10.2 µM
- TGI (HS 578T breast): 37.3 µM
- GI50 (HT29 colon): 4.73 µM
- TGI (HT29 colon): 19.3 µM
- GI50 (IGROV1 ovarian): 5.9 µM
- TGI (IGROV1 ovarian): 19 µM
- GI50 (K-562 leukemia): 3.88 µM
- TGI (K-562 leukemia): > 100 µM
- GI50 (KM12 colon): 13.3 µM
- TGI (KM12 colon): 39 µM
- GI50 (LOX IMVI melanoma): 2.17 µM
- TGI (LOX IMVI melanoma): 5.64 µM
- GI50 (M14 melanoma): 5.75 µM
- TGI (M14 melanoma): 25.4 µM
- GI50 (MALME-3M melanoma): 10.4 µM
- TGI (MALME-3M melanoma): 22.2 µM
- GI50 (MCF7 breast): 4 µM
- TGI (MCF7 breast): 16.7 µM
- GI50 (MDA-MB-231 breast): 4.37 µM
- TGI (MDA-MB-231 breast): 16 µM
- GI50 (MDA-MB-435): 6.5 µM
- TGI (MDA-MB-435): 20.2 µM
- GI50 (MDA-MB-468 breast): 4.99 µM
- TGI (MDA-MB-468 breast): 17.6 µM
- GI50 (MOLT-4 leukemia): 7.02 µM
- TGI (MOLT-4 leukemia): 75 µM
- GI50 (NCI-H226 lung): 2.96 µM
- TGI (NCI-H226 lung): 9.92 µM
- GI50 (NCI-H23 lung): 4.37 µM
- TGI (NCI-H23 lung): 16.6 µM
- GI50 (NCI-H460 lung): 3.67 µM
- TGI (NCI-H460 lung): 15.8 µM
- GI50 (NCI-H522 lung): 10.2 µM
- TGI (NCI-H522 lung): 24.9 µM
- GI50 (NCI/ADR-RES ovarian): 4.13 µM
- TGI (NCI/ADR-RES ovarian): 14.6 µM
- GI50 (OVCAR-3 ovarian): 7.37 µM
- TGI (OVCAR-3 ovarian): 22.4 µM
- GI50 (OVCAR-4 ovarian): 8.99 µM
- TGI (OVCAR-4 ovarian): 28.7 µM
- GI50 (OVCAR-5 ovarian): 15.4 µM
- TGI (OVCAR-5 ovarian): 38.3 µM
- GI50 (OVCAR-8 ovarian): 4.84 µM
- TGI (OVCAR-8 ovarian): 16.9 µM
- GI50 (PC-3 prostate): 3.73 µM
- TGI (PC-3 prostate): 20.5 µM
- GI50 (RPMI-8226 leukemia): 9.08 µM
- TGI (RPMI-8226 leukemia): > 100 µM
- GI50 (RXF 393 renal): 4.41 µM
- TGI (RXF 393 renal): 16.5 µM
- GI50 (SF-268 CNS): 15.7 µM
- TGI (SF-268 CNS): 40.3 µM
- GI50 (SF-295 CNS): 3.25 µM
- TGI (SF-295 CNS): 12.4 µM
- GI50 (SF-539 CNS): 10.9 µM
- TGI (SF-539 CNS): 23.1 µM
- GI50 (SK-MEL-2 melanoma): 15.5 µM
- TGI (SK-MEL-2 melanoma): 33.4 µM
- GI50 (SK-MEL-28 melanoma): 7.41 µM
- TGI (SK-MEL-28 melanoma): 20.2 µM
- GI50 (SK-MEL-5 melanoma): 12.3 µM
- TGI (SK-MEL-5 melanoma): 26.4 µM
- GI50 (SK-OV-3 ovarian): 7.48 µM
- TGI (SK-OV-3 ovarian): 25.4 µM
- GI50 (SN12C renal): 4.21 µM
- TGI (SN12C renal): 15.8 µM
- GI50 (SNB-19 CNS): 6.93 µM
- TGI (SNB-19 CNS): 23.8 µM
- GI50 (SNB-75 CNS): 10.5 µM
- TGI (SNB-75 CNS): 23.9 µM
- GI50 (SW-620 colon): 3.73 µM
- TGI (SW-620 colon): 19.5 µM
- GI50 (T-47D breast): 18.1 µM
- TGI (T-47D breast): 69.7 µM
- GI50 (TK-10 renal): 6.8 µM
- TGI (TK-10 renal): 20.6 µM
- GI50 (U251 CNS): 3.23 µM
- TGI (U251 CNS): 14.2 µM
- GI50 (UACC-257 melanoma): 15.2 µM
- TGI (UACC-257 melanoma): 31.5 µM
- GI50 (UACC-62 melanoma): 10.1 µM
- TGI (UACC-62 melanoma): 21.8 µM
- GI50 (UO-31 renal): 10.6 µM
- TGI (UO-31 renal): 22.7 µM
